# Oligonucleotides are written 5' to 3', each unit as a sugar letter and its base; * is a phosphorothioate linkage, no mark a phosphodiester; rarer units and linkages stand in square brackets, end groups in braces. Plain capitals give the bases only. r = 2'-OH (RNA); f = 2'-fluoro
# T1: chymase purified from human skin mast cell (native, Calbiochem) (Homo sapiens, UniProt P23946)
# T1 construct: Here, the native is chymase purified from human skin mast cell; purchased Calbiochem; host or cells: human skin mast cell (tissue-derived)
# T1 sequence (P23946 22-247): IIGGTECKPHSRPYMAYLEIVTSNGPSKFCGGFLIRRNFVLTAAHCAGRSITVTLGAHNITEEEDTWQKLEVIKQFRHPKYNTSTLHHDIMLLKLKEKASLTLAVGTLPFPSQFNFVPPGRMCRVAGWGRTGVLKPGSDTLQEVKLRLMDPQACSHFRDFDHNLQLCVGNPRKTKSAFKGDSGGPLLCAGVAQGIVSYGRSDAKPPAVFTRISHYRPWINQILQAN
# B1: 9 (nucleic acid)
# chain: rGrGrGrArAfCrGrArArGfCrGrAfCrArGrAfCrGfUfUfCfCrArGfCrGfUfCfUrArAfUrAfCrGfUrGrArAfUrArAfCfCfUrGrAfUfCrGfUrArGrGrGrGrGfUfUfCrArArGfUrAfCfUrGrArGrGrAfCrArGrA
# B2: 10 (nucleic acid)
# chain: rGrGrGrArAfCrGrArArGfCrGrAfCrArGrAfCfCrGrArAfUfCrArGrArArGfUfUfCrArAfCrAfUrGrGrAfCrAfUrArAfCrAfUfCrGrAfUrGrGrGrGfUrGfUfCrArArGfUrAfCfUrGrAfCrGrAfCrArGrA
# Molecular target: T1, chymase purified from human skin mast cell (native, Calbiochem)
# Assay: chymase enzyme activity inhibition, native substrate angiotensin I (His-Leu fluorescence)
# Format: biochemical
# Conditions: Table 2; substrate angiotensin I 50 μM, chymase 0.5 nM, 37° C. 90 min; mean of 2 or 3 measurements
# Experimental: A second method of evaluation employs a native substrate. A useful native substrate for chymase is angiotensin I. Here, His-Leu, a peptide fragment released upon degradation of angiotensin I, is fluorescently derivatized, and the fluorescence intensity therefrom is quantified.
# In the assay, an enzyme reaction is carried out in 50 μL of solution C. First, 0.3-0.75 ng of chymase (recombinant, manufactured by SIGMA; or native, manufactured by Calbiochem) is diluted in solution C to obtain 5 μL chymase solution. Each nucleic acid is prepared in solution C to obtain 25 μL solutions. 5 μL of each chymase dilution and 25 μL of each nucleic acid solution are mixed, and then the mixture is incubated at 37° C. for 5 minutes. Separately, 20 μL of 125 μM angiotensin I (manufactured by Peptide Institute, Inc.) is prepared in solution C and incubated at 37° C. for 5 minutes. The angiotensin I solution is added to the mixture of chymase and nucleic acid, and the enzyme reaction is initiated. After the reaction was allowed to proceed at 37° C. for 90 minutes, 25 μL of ice-cooled 30% trichloroacetic acid solution is added to terminate the reaction. The entire mixture is centrifuged at 4° C., 14000 rpm for 10 minutes, and 30 μL of the resulting supernatant is used for the subsequent reaction for fluorescent derivatization.
# After 30 μL of the supernatant is added to a 96-well plate (Black, manufactured by Costar), 15 μL of 2% o-phthalaldehyde (manufactured by SIGMA) solution in methanol and 170 μL of 0.3M NaOH solution are mixed in each well, and the plate is allowed to stand at room temperature for 10 minutes. Subsequently, 25 μL of 3M HCl solution is added to terminate the reaction. The plate is set to the microplate reader SpectraMax190 (manufactured by Molecular Devices Corporation), and the fluorescence intensity is determined at an excitation wavelength of 355 nm and a fluorescence wavelength of 460 nm.
# For control, samples are treated and analyzed in the same manner in two cases: use of SEQ ID NO: 58 (negative control) and use of chymostatin, a known chymotrypsin-like serine protease inhibitor (positive control). In both cases, fluorescence intensity obtained at 0 minute reaction time serves as a blank determination. Taking the fluorescence intensity detected with the addition of an equal volume of solution C, in place of each nucleic acid, in the chymase enzyme reaction as 100%, the inhibitory rate for each test substance is calculated, and the inhibitor concentration required to cause a 50% inhibition of the enzyme activity (IC50) is determined.
# Whether the nucleic acids shown by SEQ ID NO: 9 and 10 inhibit the enzyme activity of chymase was determined by the following method. Angiotensin I is converted by chymase to angiotensin II, during which a peptide fragment His-Leu is released. Since the peptide His-Leu is fluorescently derivatized by o-phthalaldehyde, its fluorescence intensity can be quantitatively measured.
# The total volume of solution for an enzyme reaction in the assay was set to 50 μL, and the reaction was performed in solution C buffer. At first, native (manufactured by Calbiochem) was diluted with solution C to give 5 μL thereof. Here, the native is chymase purified from human skin mast cell. The nucleic acid was serially diluted with solution C at a concentration of 0.0027-2 μM to give 25 μL thereof. The chymase solution (5 μL) and the nucleic acid solution (25 μL) were mixed, and the mixture was incubated at 37° C. for 5 min. On the other hand, […] angiotensin I (manufactured by PEPTIDE INSTITUTE, INC.) was prepared in solution C to give 20 μL thereof, which was incubated at 37° C. for 5 min. The angiotensin I solution was added to a mixture of chymase and nucleic acid to start an enzyme reaction. The final chymase concentration of the reaction solution was 0.5 nM, and the final substrate concentration was 50 μM. […]
row,Molecule,IC50 [nM]
1,B1,0.22
2,B2,0.43

# Same assay, conditions: Table 3; angiotensin I as substrate; mean of 2 or 3 measurements; >1 = no inhibitory activity up to 1 μM
row,Molecule,IC50 [nM]
1,"18 (UGAUCGGACAUAACAUUGUUGGGGUGUCAA; 2'-fluoro at CU, RNA at AG, backbone not given here) [compound 18]",2.1
2,"19 (AUCGGACAUAACAUUGUUGGGGUGUCAA; 2'-fluoro at CU, RNA at AG, backbone not given here) [compound 19]",14.4
3,"20 (GAUGAUCGGACAUAACAUUGUUGGGGUGUCA; 2'-fluoro at CU, RNA at AG, backbone not given here) [compound 20]",1.8

# Same assay, conditions: Table 4; angiotensin I as substrate; mean of 2 or 3 measurements
row,Molecule,IC50 [nM]
1,"17(17) (GAUGAUCGGACAUAACAUUGUUGGGGUGUCAA; aptamer; 2'-O-methyl, idT end and other modifications, positions not given here)",0.19
2,"17(18) (GAUGAUCGGACAUAACAUUGUUGGGGUGUCAA; aptamer; 2'-O-methyl, idT end and other modifications, positions not given here)",0.15
3,"17(19) (GAUGAUCGGACAUAACAUUGUUGGGGUGUCAA; aptamer; 2'-O-methyl, idT end and other modifications, positions not given here)",0.19
4,"17(20) (GAUGAUCGGACAUAACAUUGUUGGGGUGUCAA; aptamer; 2'-O-methyl, idT end and other modifications, positions not given here)",0.18
5,"17(21) (GAUGAUCGGACAUAACAUUGUUGGGGUGUCAA; aptamer; 2'-O-methyl, idT end and other modifications, positions not given here)",0.19
6,"17(22) (GAUGAUCGGACAUAACAUUGUUGGGGUGUCAA; aptamer; 2'-O-methyl, idT end and other modifications, positions not given here)",0.17
7,"17(23) (GAUGAUCGGACAUAACAUUGUUGGGGUGUCAA; aptamer; 2'-O-methyl, idT end and other modifications, positions not given here)",0.16
8,"17(24) (GAUGAUCGGACAUAACAUUGUUGGGGUGUCAA; aptamer; 2'-O-methyl, idT end and other modifications, positions not given here)",0.19
9,"17(25) (GAUGAUCGGACAUAACAUUGUUGGGGUGUCAA; 2'-O-methyl, idT end and other modifications, positions not given here)",0.2

# Same assay, conditions: Table 6; angiotensin I as substrate; mean of 2 or 3 measurements
row,Molecule,IC50 [nM]
1,"33 (AUGAUCGGACAUAACUAAUUAGGGGUGUCAA; aptamer; listed as RNA, chemistry not fully specified) [compound 33]",0.21
2,"33(1) (AUGAUCGGACAUAACUAAUUAGGGGUGUCAA; aptamer; modified variant with 2'-O-methyl and end modifications, pattern not given here)",0.074
3,"33(2) (AUGAUCGGACAUAACUAAUUAGGGGUGUCAA; aptamer; modified variant with 2'-O-methyl and end modifications, pattern not given here)",0.078
4,"33(3) (AUGAUCGGACAUAACUAAUUAGGGGUGUCAA; aptamer; modified variant with 2'-O-methyl and end modifications, pattern not given here)",0.071
5,"33(4) (AUGAUCGGACAUAACUAAUUAGGGGUGUCAA; aptamer; modified variant with 2'-O-methyl and end modifications, pattern not given here)",0.072
6,"33(5) (AUGAUCGGACAUAACUAAUUAGGGGUGUCAA; aptamer; modified variant with 2'-O-methyl and end modifications, pattern not given here)",0.076
7,"33(6) (AUGAUCGGACAUAACUAAUUAGGGGUGUCAA; aptamer; modified variant with 2'-O-methyl and end modifications, pattern not given here)",0.053
8,"33(7) (AUGAUCGGACAUAACUAAUUAGGGGUGUCAA; aptamer; modified variant with 2'-O-methyl and end modifications, pattern not given here)",0.071
9,"33(8) (AUGAUCGGACAUAACUAAUUAGGGGUGUCAA; aptamer; modified variant with 2'-O-methyl and end modifications, pattern not given here)",0.061
10,"33(9) (AUGAUCGGACAUAACUAAUUAGGGGUGUCAA; listed as RNA, chemistry not fully specified)",1.35
11,"33(10) (AUGAUCGGACAUAACUAAUUAGGGGUGUCAA; aptamer; modified variant with 2'-O-methyl and end modifications, pattern not given here)",0.071
12,"33(11) (AUGAUCGGACAUAACUAAUUAGGGGUGUCAA; aptamer; modified variant with 2'-O-methyl and end modifications, pattern not given here)",0.051
13,"33(12) (AUGAUCGGACAUAACUAAUUAGGGGUGUCAA; modification pattern variant (12), chemistry not fully specified)",0.048
14,"33(13) (AUGAUCGGACAUAACUAAUUAGGGGUGUCAA; aptamer; modified variant with 2'-O-methyl and end modifications, pattern not given here)",0.069
15,"33(14) (AUGAUCGGACAUAACUAAUUAGGGGUGUCAA; aptamer; modified variant with 2'-O-methyl and end modifications, pattern not given here)",0.075
16,"33(15) (AUGAUCGGACAUAACUAAUUAGGGGUGUCAA; aptamer; modified variant with 2'-O-methyl and end modifications, pattern not given here)",0.072
17,"33(16) (AUGAUCGGACAUAACUAAUUAGGGGUGUCAA; aptamer; modified variant with 2'-O-methyl and end modifications, pattern not given here)",0.063
18,"33(17) (AUGAUCGGACAUAACUAAUUAGGGGUGUCAA; aptamer; modified variant with 2'-O-methyl and end modifications, pattern not given here)",0.038
